According to patent US20160017206A1, “METHODS FOR IMMEDIATE SOURING CONTROL IN GASES OR FLUIDS PRODUCED FROM SULFIDOGENIC RESERVOIR SYSTEMS” (THE REGENTS OF THE UNIVERSITY OF CALIFORNIA, priority 2013, published 2016):

Legend:
Type in all cases: cell-based
A. suillum = experiment: Fe(II) oxidation by A. suillum in anoxic culture with nitrate as electron acceptor; conditions: 10 mM Fe(II) as FeCl2, 10 mM acetate as cosubstrate, within 7 days
Procedure: A. suillum readily oxidized (10 mM) Fe(II) in the form of FeCl2 with nitrate as the electron acceptor under strict anaerobic conditions (FIG. 8). With 10 mM acetate as a cosubstrate, more than 70% of the added iron was oxidized within 7 days. No Fe(II) was oxidized in the absence of cells or if the nitrate was omitted (data not shown). Fe(II) oxidation was initiated after complete mineralization of acetate to CO2, and growth was not associated with this metabolism.
When acetate was added as an additional carbon and energy source, cell density increased concomitant with acetate oxidation. Fe(II) oxidation occurred after acetate had been depleted and the culture had reached stationary phase (FIG. 8).

Desulfovibrio vulgaris = experiment: Inhibition of sulfidogenesis (sulfate reduction to sulfide) by D. vulgaris cultures
Procedure: Twelve tubes of basal anaerobic medium containing 15 mM lactate and 15 mM sulfate were inoculated with an active culture of D. vulgaris and incubated for 6 hours at 30° C., until a visible increase in optical density was observed. After six hours, the tubes were further inoculated with A. suillum and 15 mM chlorate prior to incubation overnight at 30° C., as outlined in Table 2.

[1] = test system: marine sediment slurry microcosms; experiment: Sulfide inhibition in marine sediment slurry microcosms; conditions: chlorate added with Dechloromarinus strain NSS, incubation over 250 hours
Text: In the absence of chlorate and Dechloromarinus strain NSS sulfide is readily produced.

## [Cl][Fe][Cl] [FeCl2, Ferrous chloride]
A. suillum
  added iron oxidized: more than 70%

## [O-][Cl+2]([O-])O [chlorate]
Desulfovibrio vulgaris; 15 mM chlorate alone, 24 hours, lactate as electron donor
  sulfide production by D. vulgaris relative to control cells incubated without chlorate: 49%
Desulfovibrio vulgaris; 15 mM chlorate together with A. suillum, 24-hour incubation
  sulfide production by D. vulgaris relative to control cells incubated in the absence of A. suillum and chlorate: 17%
Desulfovibrio vulgaris; relatively low concentrations (15 mM)
  antimicrobial activity against D. vulgaris: has antimicrobial activity against D. vulgaris
Desulfovibrio vulgaris; treated with A. suillum (PS) and chlorate at 48 hours, relative to untreated control
  time course of sulfidogenesis by D. vulgaris (FIG. 14): immediate inhibition of sulfide production and removal of sulfide from the medium
[1]
  sulfide production in marine sediment slurry microcosms (FIG. 12): sulfide inhibition
